In one assay the test system is HeLa S-3 cells. The assay can be described thus: HeLa GI50 determination (SRB growth inhibition). Type of assay: cell-based, human. The settings on record: Homo sapiens, HeLa S3, 48 h. The method, then: Growth inhibition (GI50) values were measured on the human cervical carcinoma cell line, HeLa S-3, which were selected for growth on plastic. The HeLa cell assay was based on the description of Skehan et al., J. Natl. Cancer Inst., 82:1107-12 (1990), which is hereby incorporated by reference in its entirety. HeLa cells were plated at 2×10^4 cells/well in 96 well plates. One day later, a control plate was fixed by the addition of TCA to 5%. After five rinses with tap water, the plate was air-dried and stored at 4° C. Test compounds were added to the remaining plates at 10-fold dilutions. Two days later, all plates were fixed as described above. Cells were then stained by the addition of 100 μL per well of 0.4% sulforhodamine B (SRB) in 1% acetic acid for 30 min at 4° C. Wells were then quickly rinsed 5× with 1% acetic acid and allowed to air dry. The SRB was then solubilized by the addition of 100 μL per well of unbuffered 10 mM Tris base. Dye was quantified by measuring absorbance at 490 nm on a Molecular Devices microplate reader. Growth inhibition was calculated according to the following equation: GI=100×(T−T0)/(C−T0), where the optical density (OD) of the test well after 2 days of treatment was T, the OD of the wells in the control plate on day 0 was T0 and C was the OD of untreated wells. Plots of percent growth inhibition versus inhibitor concentration were used to determine the GI50.

Another assay concerns MCF-7 cells. Kind of assay: MCF-7 GI50 determination (crystal violet growth inhibition). Type of assay: cell-based, human. The settings on record: Homo sapiens, MCF7, 96 h. The method, then: Growth inhibition (GI50) values were measured on the human breast carcinoma line, MCF-7. MCF-7 cells were plated at 2×10^4 cells/well in 96 well plates and grown for 24 hours in drug free media. On day 2, test compounds were added to the plates at 10-fold dilutions. Four days later, cells were fixed by the addition of glutaraldehyde to 0.75%. After 30 min, the fixed cells were extensively rinsed with distilled water and dried at room temperature for one hour. The cells were then stained with a 0.2% crystal violet solution for one hour at room temperature. Unbound stain was removed by ten rinses with tap water and plates were allowed to air dry for 30 min. The crystal violet was then solubilized by the addition of 10% acetic acid for 15 min and quantified by measuring absorbance at 570 nm on a Molecular Devices microplate reader. Growth inhibition was calculated according to the following equation: GI=[…], where the optical density (OD) of the test well after 4 days of treatment was T, the OD of the wells in the control plate on day 0 was T0. Plots of percent growth inhibition versus inhibitor concentration were used to determine the GI50.

[1] abbreviates: HeLa S-3 cells, 2 days of treatment, sulforhodamine B, read-out: HeLa Cells GI50.
Setting [2] is: MCF-7 cells, 4 days of treatment, crystal violet, read-out: MCF-7 Cells GI50.
The mark [3] stands for this setting: read-out: MCF-7 Cells GI50 (nM).

Structures are written as SMILES. Read-outs that look alike come from different tables or passages of the source.

As to `CC[C@]1(O)C[C@H]2CN(CCc3c([nH]c4ccc(C)cc34)[C@@](C(=O)OC)(c3cc4c(cc3OC)N(C=O)[C@H]3[C@@](O)(C(=O)OC)[C@H](OC(C)=O)[C@]5(CC)C=CCN6CC[C@]43[C@@H]65)C2)C1` [Example 76, 12′-methylvincristine], the GI50 was 1 nM in the assay with HeLa S-3 cells (setting [1]) and 3 nM in the assay on MCF-7 cells (setting [2]).
Take `CC[C@]1(O)C[C@H]2CN(CCc3c([nH]c4cc(I)c(I)cc34)[C@@](C(=O)OC)(c3cc4c(cc3OC)N(C=O)[C@H]3[C@@](O)(C(=O)OC)[C@H](OC(C)=O)[C@]5(CC)C=CCN6CC[C@]43[C@@H]65)C2)C1` [Example 90, 12′,13′-diiodovincristine]: the GI50 with HeLa S-3 cells (read-out: HeLa Cells GI50 (nM)) and in the assay on MCF-7 cells (setting [3]) was 30 nM in each case.
As to `CC[C@]1(O)C[C@H]2CN(CCc3c([nH]c4ccc(-c5cccc(O)c5)cc34)[C@@](C(=O)OC)(c3cc4c(cc3OC)N(C)[C@H]3[C@@](O)(C(=O)OC)[C@H](OC(C)=O)[C@]5(CC)C=CCN6CC[C@]43[C@@H]65)C2)C1` [Example 12, 12′-(3-hydroxyphenyl) vinblastine], the GI50 with HeLa S-3 cells (read-out: HeLa Cells GI50 (nM)) was found to be 200 nM; in the assay on MCF-7 cells (setting [3]), 300 nM.
For `CC[C@]1(O)C[C@H]2CN(CCc3c([nH]c4ccc(/C=C/CNC(=O)OC(C)(C)C)cc34)[C@@](C(=O)OC)(c3cc4c(cc3OC)N(C)[C@H]3[C@@](O)(C(=O)OC)[C@H](OC(C)=O)[C@]5(CC)C=CCN6CC[C@]43[C@@H]65)C2)C1` [Example 31, 12′-(3-tert-butoxycarbonylaminopropenyl) vinblastine], in that order: 600 nM and 300 nM.
Take `CCCCC#Cc1ccc2[nH]c3c(c2c1)CCN1C[C@H](C[C@@](O)(CC)C1)C[C@]3(C(=O)OC)c1cc2c(cc1OC)N(C)[C@H]1[C@@](O)(C(=O)OC)[C@H](OC(C)=O)[C@]3(CC)C=CCN4CC[C@]21[C@@H]43` [Example 23, 12′-hexynylvinblastine]: the GI50 was found to be 40 nM with HeLa S-3 cells (setting [1]) and 50 nM in the assay with MCF-7 cells (setting [2]).
In the case of `CC[C@]1(O)C[C@H]2CN(CCc3c([nH]c4ccc(N)cc34)[C@@](C(=O)OC)(c3cc4c(cc3OC)N(C)[C@H]3[C@@](O)(C(=O)OC)[C@H](OC(C)=O)[C@]5(CC)C=CCN6CC[C@]43[C@@H]65)C2)C1` [Example 80, 12′-aminovinblastine], the GI50 with HeLa S-3 cells (setting [1]) and with MCF-7 cells (setting [2]) was 200 nM each time.
On to `CCc1ccc2[nH]c3c(c2c1)CCN1C[C@H](C[C@@](O)(CC)C1)C[C@]3(C(=O)OC)c1cc2c(cc1OC)N(C)[C@H]1[C@@](O)(C(=O)OC)[C@H](OC(C)=O)[C@]3(CC)C=CCN4CC[C@]21[C@@H]43` [Example 77, 12′-ethylvinblastine], for which the figures for the 50% growth inhibitory concentration (GI50) in the assay on HeLa S-3 cells (setting [1]) and with MCF-7 cells (setting [2]) were 0.3 nM and 0.6 nM, respectively.
On to `CC[C@]1(O)C[C@H]2CN(CCc3c([nH]c4ccc(C#CC(C)C)cc34)[C@@](C(=O)OC)(c3cc4c(cc3OC)N(C)[C@H]3[C@@](O)(C(=O)OC)[C@H](OC(C)=O)[C@]5(CC)C=CCN6CC[C@]43[C@@H]65)C2)C1` [Example 20, 12′-(3-methylbutynyl) vinblastine], for which the GI50 with HeLa S-3 cells (read-out: HeLa Cells GI50 (nM)) is 500 nM; with MCF-7 cells (setting [3]), greater than 1000 nM.
For the compound `CC[C@]1(O)C[C@H]2CN(CCc3c([nH]c4ccc(SCc5ccc(OC)cc5)cc34)[C@@](C(=O)OC)(c3cc4c(cc3OC)N(C)[C@H]3[C@@](O)(C(=O)OC)[C@H](OC(C)=O)[C@]5(CC)C=CCN6CC[C@]43[C@@H]65)C2)C1` [Example 36, 12′-(4-methoxybenzylsulfanyl)vinblastine], the figures for the GI50 in the assay with HeLa S-3 cells (read-out: HeLa Cells GI50 (nM)) and with MCF-7 cells (setting [3]) were 30 nM and 50 nM, respectively.
The like results for `CC[C@]1(O)C[C@H]2CN(CCc3c([nH]c4ccc(C(=O)OCC(Cl)(Cl)Cl)cc34)[C@@](C(=O)OC)(c3cc4c(cc3OC)N(C)[C@H]3[C@@](O)(C(=O)OC)[C@H](OC(C)=O)[C@]5(CC)C=CCN6CC[C@]43[C@@H]65)C2)C1` [Example 68, 12′-(2,2,2-trichloroethylcarbonyl)vinblastine] were, in that order, 30 nM and 200 nM.
For the compound `CC[C@]1(O)C[C@H]2CN(CCc3c([nH]c4cc(I)c(I)cc34)[C@@](C(=O)OC)(c3cc4c(cc3OC)N(C)[C@H]3[C@@](O)(C(=O)OC)[C@H](OC(C)=O)[C@]5(CC)C=CCN6CC[C@]43[C@@H]65)C2)C1` [Example 91, 12′,13′-diiodovinblastine], the GI50 in the assay with HeLa S-3 cells (setting [1]) was 60 nM; with MCF-7 cells (setting [2]) it was 200 nM.
For `CC[C@]1(O)C[C@H]2CN(CCc3c([nH]c4ccc(/C=C/C#N)cc34)[C@@](C(=O)OC)(c3cc4c(cc3OC)N(C)[C@H]3[C@@](O)(C(=O)OC)[C@H](OC(C)=O)[C@]5(CC)C=CCN6CC[C@]43[C@@H]65)C2)C1` [Example 30, 12′-(2-cyanovinyl) vinblastine], the GI50 is 65 nM with HeLa S-3 cells (read-out: HeLa Cells GI50 (nM)) and 45 nM with MCF-7 cells (setting [3]).
As for `CC[C@]1(O)C[C@H]2CN(CCc3c([nH]c4ccc(Sc5cccc(O)c5)cc34)[C@@](C(=O)OC)(c3cc4c(cc3OC)N(C=O)[C@H]3[C@@](O)(C(=O)OC)[C@H](OC(C)=O)[C@]5(CC)C=CCN6CC[C@]43[C@@H]65)C2)C1` [Example 54, 12′-(3-hydroxyphenylsulfanyl)vincristine], the results for the concentration for 50% growth inhibition (GI50) with HeLa S-3 cells (read-out: HeLa Cells GI50 (nM)) and in the assay with MCF-7 cells (setting [3]) were 100 nM and 50 nM, respectively.
For `CC[C@]1(O)C[C@H]2CN(CCc3c([nH]c4ccc(SCC(=O)OC(C)(C)C)cc34)[C@@](C(=O)OC)(c3cc4c(cc3OC)N(C)[C@H]3[C@@](O)(C(=O)OC)[C@H](OC(C)=O)[C@]5(CC)C=CCN6CC[C@]43[C@@H]65)C2)C1` [Example 44, 12′-(tert-butoxycarbonylmethylsulfanyl) vinblastine], the GI50 in the assay with HeLa S-3 cells (read-out: HeLa Cells GI50 (nM)) is 70 nM; in the assay on MCF-7 cells (setting [3]), 100 nM.
Turning to `CC[C@]1(O)C[C@H]2CN(CCc3c([nH]c4ccc(SC)cc34)[C@@](C(=O)OC)(c3cc4c(cc3OC)N(C=O)[C@H]3[C@@](O)(C(=O)OC)[C@H](OC(C)=O)[C@]5(CC)C=CCN6CC[C@]43[C@@H]65)C2)C1` [Example 42, 12′-(methylsulfanyl) vincristine], the 50% growth inhibitory concentration (GI50) in the assay on HeLa S-3 cells (setting [1]) and in the assay on MCF-7 cells (setting [2]) was 3 nM each time.
Take `CC[C@]1(O)C[C@H]2CN(CCc3c([nH]c4ccc(SCCCO)cc34)[C@@](C(=O)OC)(c3cc4c(cc3OC)N(C)[C@H]3[C@@](O)(C(=O)OC)[C@H](OC(C)=O)[C@]5(CC)C=CCN6CC[C@]43[C@@H]65)C2)C1` [Example 33, 12′-(4-hydroxypropylsulfanyl)vinblastine]: the figures for the GI50 in the assay with HeLa S-3 cells (setting [1]) and in the assay with MCF-7 cells (setting [2]) were 20 nM and 30 nM, respectively.
The like results for `CC#Cc1ccc2[nH]c3c(c2c1)CCN1C[C@H](C[C@@](O)(CC)C1)C[C@]3(C(=O)OC)c1cc2c(cc1OC)N(C)[C@H]1[C@@](O)(C(=O)OC)[C@H](OC(C)=O)[C@]3(CC)C=CCN4CC[C@]21[C@@H]43` [Example 18, 12′-propynylvinblastine] were, in that order, 300 nM and 300 nM.
For `CCC1=C[C@H]2CN(CCc3c([nH]c4ccc(Br)cc34)[C@@](C(=O)OC)(c3cc4c(cc3OC)N(C=O)[C@H]3[C@@](O)(C(=O)OC)[C@H](OC(C)=O)[C@]5(CC)C=CCN6CC[C@]43[C@@H]65)C2)C1` [Example 99, 12′-bromoanhydro vincristine], the GI50 was 4 nM with HeLa S-3 cells (setting [1]) and 1 nM in the assay on MCF-7 cells (setting [2]).
For the compound `CC[C@]1(O)C[C@H]2CN(CCc3c([nH]c4ccc(-c5nccs5)cc34)[C@@](C(=O)OC)(c3cc4c(cc3OC)N(C)[C@H]3[C@@](O)(C(=O)OC)[C@H](OC(C)=O)[C@]5(CC)C=CCN6CC[C@]43[C@@H]65)C2)C1` [Example 15, 12′-(2-thiazolyl) vinblastine], the results for the 50% growth inhibitory concentration (GI50) in the assay on HeLa S-3 cells (read-out: HeLa Cells GI50 (nM)) and in the assay with MCF-7 cells (setting [3]) were 200 nM and 100 nM, respectively.
The like results for `CC[C@]1(O)C[C@H]2CN(CCc3c([nH]c4ccc(C#CC(C)C)cc34)[C@@](C(=O)OC)(c3cc4c(cc3OC)N(C=O)[C@H]3[C@@](O)(C(=O)OC)[C@H](OC(C)=O)[C@]5(CC)C=CCN6CC[C@]43[C@@H]65)C2)C1` [Example 21, 12′-(3-methylbutynyl) vincristine] were, in that order, 300 nM and 300 nM.
`CCCCCCc1ccc2[nH]c3c(c2c1)CCN1C[C@H](C[C@@](O)(CC)C1)C[C@]3(C(=O)OC)c1cc2c(cc1OC)N(C=O)[C@H]1[C@@](O)(C(=O)OC)[C@H](OC(C)=O)[C@]3(CC)C=CCN4CC[C@]21[C@@H]43` [Example 74, 12′-hexylvincristine]: the 50% growth inhibitory concentration (GI50) in the assay with HeLa S-3 cells (setting [1]) was determined as 30 nM; in the assay with MCF-7 cells (setting [2]) it was 40 nM.

(Values after patent US7745619B2, “Vinca derivatives” (priority 2003, dated 2010).)
